Test results reported in the NIST ThermoML archive (doi:10.1021/je050540h).
“And” between values parts separate entries of the source, which are not always exact repeats. Equal values may be shown once.

How the values were obtained:
[1] = Liquid
[2] = xn = mol fraction of the nth substance listed; details: 101 kPa, Liquid

CCC(C)O (stereo unspecified) [butan-2-ol]
[1], 101 kPa
Details | mass density [kg/m3] | speed of sound [m/s] | viscosity [mPa·s]
293.15 K | 806.84 | 1230 | 3.623
298.15 K | 802.72 | 1212 | 2.995
303.15 K | 798.51 | 1194 | 2.493

C1CCCCC1 [cyclohexane]
[1]
Details | mass density, 293.15 K [kg/m3] | mass density, 298.15 K [kg/m3] | mass density, 303.15 K [kg/m3] | speed of sound, 293.15 K [m/s] | speed of sound, 298.15 K [m/s] | speed of sound, 303.15 K [m/s] | viscosity, 293.15 K [mPa·s] | viscosity, 298.15 K [mPa·s] | viscosity, 303.15 K [mPa·s]
7 kPa | – | – | – | 1279 | 1254 | 1230 | – | – | –
101 kPa | 778.62 | 773.92 | 769.19 | 1279 | 1254 | 1230 | 0.968 | 0.887 | 0.816

C1CCCC1 [cyclopentane]
[1], 101 kPa
Details | mass density [kg/m3] | speed of sound [m/s] | viscosity
293.15 K | 744.52 | 1232 | 0.438 mPa·s and 0.439 mPa·s
298.15 K | 739.55 | 1206 | 0.416 mPa·s
303.15 K | 734.54 | 1180 | 0.394 mPa·s

C1CCCC1 [cyclopentane] + CCCC(C)O
[2]
Details | mass density, 293.15 K [kg/m3] | mass density, 298.15 K [kg/m3] | mass density, 303.15 K [kg/m3] | speed of sound, 293.15 K [m/s] | speed of sound, 298.15 K [m/s] | speed of sound, 303.15 K [m/s] | viscosity, 293.15 K [mPa·s] | viscosity, 298.15 K [mPa·s] | viscosity, 303.15 K [mPa·s]
x1 = 0.045 | 806.38 | 802.28 | 798.1 | 1246 | 1227 | 1208 | 3.573 | 2.948 | 2.459
x1 = 0.103 | 802.8 | 798.62 | 794.35 | 1239 | 1220 | 1200 | 3.005 | 2.509 | 2.118
x1 = 0.1878 | 797.38 | 793.07 | 788.68 | 1229 | 1209 | 1189 | 2.322 | 1.969 | 1.687
x1 = 0.2924 | 790.57 | 786.12 | 781.6 | 1218 | 1198 | 1177 | 1.723 | 1.491 | 1.304
x1 = 0.3906 | 783.89 | 779.33 | 774.71 | 1209 | 1188 | 1167 | 1.296 | 1.148 | 1.027
x1 = 0.5117 | 775.68 | 771.03 | 766.32 | 1201 | 1179 | 1157 | 0.957 | 0.87 | 0.794
x1 = 0.6242 | 768.16 | 763.43 | 758.63 | 1197 | 1175 | 1152 | 0.747 | 0.694 | 0.645
x1 = 0.721 | 761.81 | 756.98 | 752.09 | 1198 | 1175 | 1152 | 0.629 | 0.587 | 0.548
x1 = 0.8091 | 756.27 | 751.36 | 746.38 | 1202 | 1178 | 1154 | 0.552 | 0.516 | 0.487
x1 = 0.9094 | 749.82 | 744.82 | 739.76 | 1211 | 1186 | 1161 | 0.482 | 0.453 | 0.428
x1 = 0.9552 | 746.94 | 741.92 | 736.85 | 1218 | 1193 | 1167 | 0.455 | 0.43 | 0.407
x1 = 1 | 744.52 | 739.55 | 734.54 | 1232 | 1206 | 1180 | 0.439 | 0.416 | 0.394

CCCC(C)O (stereo unspecified) [pentan-2-ol]
[1]
Details | mass density, 293.15 K [kg/m3] | mass density, 298.15 K [kg/m3] | mass density, 303.15 K [kg/m3] | speed of sound, 293.15 K [m/s] | speed of sound, 298.15 K [m/s] | speed of sound, 303.15 K [m/s] | viscosity, 293.15 K [mPa·s] | viscosity, 298.15 K [mPa·s] | viscosity, 303.15 K [mPa·s]
7 kPa | – | – | – | 1250 | 1232 | 1214 | – | – | –
101 kPa | 809.04 | 805.01 | 800.9 | 1250 | 1232 | 1214 | 4.001 | 3.273 | 2.774

CCCC(C)O (stereo unspecified) [pentan-2-ol] + C1CCCC1
[2], x2 = 0
Details | mass density [kg/m3] | speed of sound [m/s] | viscosity [mPa·s]
293.15 K | 809.04 | 1250 | 4.001
298.15 K | 805.01 | 1232 | 3.273
303.15 K | 800.9 | 1214 | 2.774

CC(C)O [propan-2-ol]
[1], 101 kPa
Details | mass density [kg/m3] | speed of sound [m/s] | viscosity [mPa·s]
293.15 K | 785.07 | 1156 | 2.382
298.15 K | 780.87 | 1139 | 2.045
303.15 K | 776.6 | 1121 | 1.763

CC(C)O [propan-2-ol] + C1CCCC1
[2], x2 = 0
Details | mass density [kg/m3] | speed of sound [m/s] | viscosity [mPa·s]
293.15 K | 785.07 | 1156 | 2.382
298.15 K | 780.87 | 1139 | 2.045
303.15 K | 776.6 | 1121 | 1.763

CC(C)O [propan-2-ol] + C1CCCCC1
[2], x2 = 0
Details | mass density [kg/m3] | speed of sound [m/s] | viscosity [mPa·s]
293.15 K | 785.07 | 1156 | 2.382
298.15 K | 780.87 | 1139 | 2.045
303.15 K | 776.6 | 1121 | 1.763
